Assay results taken from PMC9977294, “A parasitic fungus employs mutated eIF4A to survive on rocaglate-synthesizing Aglaia plants” (eLife, 2023).
“Also recorded” adds a separate entry of the source.

Experiments:
[1] = tested on: C. orbiculare eIF4A^WT conidia and mycelia; test: Ribosome profiling and RNA-Seq, translation efficiency change; format: cell-based, Colletotrichum orbiculare; settings: 0.3 or 3 µM aglafoline, 6 h
Experimental: (§1) Glycerol stocks of C. orbiculare eIF4A^WT#1 and eIF4A^H153G#1 strains were streaked on PDA in 90 mm plastic Petri dishes and incubated for 3 days. A single colony of each strain was transferred onto PDA and incubated for 3 days. The outer edges of colonies were transferred to 90 mm plastic dishes filled with 20 ml of PDB using plastic straws and incubated for 4 days. Aglafoline (0.3 or 3 µM) or DMSO was added to dishes and incubated for 6 h.
(§2) A single colony from the glycerol stocks was cultured by the same method used for mycelium preparation. The outer edges of colonies of each strain were transferred into six 300 ml flasks filled with 100 ml of PDA. Two milliliters of sterilized water was added to each flask, and the flasks were shaken well to ensure that the mycelial cells adhered to the entire surface of the PDA evenly. After 6 days of incubation in the dark, conidia generated on the surface of PDA were suspended in 20 ml of sterilized water. […]
(§3) Sequence data were processed as previously described ([McGlincy and Ingolia, 2017]) with modifications. For ribosome profiling, using the Fastp v0.21.0 ([Chen et al., 2018]) tool, sequences of reads 1 were corrected by reads 2, and quality filtering and adapter sequence removal were performed on reads 1. The adapter-removed reads 1 were split by the barcode sequence. […]

[2] = tested on: C. orbiculare eIF4A^His153Gly conidia and mycelia; test: as above; format: cell-based, Colletotrichum orbiculare; settings: 3 µM aglafoline, 6 h, compared with eIF4A^WT
Experimental: as §1, §2, §3

## COC(=O)[C@H]1[C@@H](O)[C@@]2(O)c3c(OC)cc(OC)cc3O[C@@]2(c2ccc(OC)cc2)[C@@H]1c1ccccc1 [Aglafoline, methyl rocaglate]
[1]
  translation efficiency change: a subset of mRNAs showed high aglafoline sensitivity in terms of translation efficiency in conidia; also recorded: the reduction was compound dose dependent
[2]
  translation efficiency change: attenuated by the His153Gly substitution
